Test results: paper PMC12621189, “Optimization of Selective and CNS Penetrant Alkyne-Based TREK Inhibitors: The Discovery and Characterization of ONO-9517601 (VU6022856) and ONO-7927846 (VU6024391)” (Journal of Medicinal Chemistry, 2025)
Like-named read-outs stand apart in the source and are kept apart here.

Key:
[1] = Plasma protein binding, human (equilibrium dialysis); assay type: in vitro ADME; details: pH 7.4, read-out: PPB human (converted)
Experimental: Plasma protein binding and Brain homogenate binding: Determination of fraction unbound (f u) in plasma was conducted in vitro via equilibrium dialysis using HTDialysis (HTD) membrane plates. The top half of the plate was filled with 100 uL of Dubelco’s Phosphate Buffered Saline, pH 7.4 (DPBS). Compounds were diluted into plasma from each species (5 µM final concentration), which was aliquoted in triplicate to the ‘bottom half’ of the prepared HTD plate wells. The HTD plate was sealed and incubated for 6 hours at 37 °C. Following incubation, each well (both top and bottom halves) were transferred (20 µL) to the corresponding wells of a 96-shallow-well (V-bottom) plate. The daughter plates were then matrix-matched (DPBS side wells received equal volume of plasma, and plasma side wells received equal volume of DPBS), and extraction solution (120 µL; acetonitrile containing 50 nM carbamazepine as IS) was added to all wells of both daughter plates to precipitate protein and extract test article. The plates were then sealed and centrifuged (3500 rcf) for 10 minutes at ambient temperature. Supernatant (60 µL) from each well of the daughter plates was then transferred to the corresponding wells of new daughter plates (96-shallow-well, V bottom) containing water (Milli-Q, 60 µL/well), and the plates were sealed in preparation for LC-MS/MS analysis (see LC-MS/MS analysis method below).
The unbound fraction (f u) was calculated following the equation below, and mean values for each species were calculated from 3 replicates. […]
Fraction unbound for both plasma and brain samples was determined using Equation 4.
Equation 4 Determination of fraction unbound in plasma. […]

[2] = CACO-2 efflux ratio; assay type: in vitro ADME; details: human, pH 7.4, efflux ratio, read-out: CACO-2 (ER)
[3] = IV/PO pharmacokinetic study, rat (SD); assay type: in vivo; details: for clearance / Vd / half-life / Cmax: Sprague-Dawley, plasma; for clearance / Vd / half-life: iv 1 mg/kg; for clearance: read-out: CLp; for Vd: read-out: Vss; for half-life: read-out: elimination t1/2 (converted); for Cmax / F (%) po: po 1 mg/kg
[4] = biological target: T1, adenosine A3 (Homo sapiens, UniProt P0DMS8); experiment: Radioligand binding, adenosine A3; details: for IC50: follow-up binding; for inhibition at 10 µM: radioligand binding displacement
T1 construct: purchased Eurofins
T1 sequence (P0DMS8 1-318): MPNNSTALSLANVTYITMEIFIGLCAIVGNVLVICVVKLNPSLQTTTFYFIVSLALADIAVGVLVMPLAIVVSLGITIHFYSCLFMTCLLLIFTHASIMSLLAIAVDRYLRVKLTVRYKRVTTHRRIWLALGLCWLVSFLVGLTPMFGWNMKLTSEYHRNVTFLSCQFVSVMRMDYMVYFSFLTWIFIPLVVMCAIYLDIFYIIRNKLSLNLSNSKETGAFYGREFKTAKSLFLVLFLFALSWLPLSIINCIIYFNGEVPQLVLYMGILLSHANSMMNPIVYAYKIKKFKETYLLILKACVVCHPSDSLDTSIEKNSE

[5] = biological target: Cav1.2 (Homo sapiens, UniProt Q13936); experiment: MPC ion channel panel, Cav1.2; assay type: cell-based
[6] = biological target: Kv4.3 (Homo sapiens, UniProt Q9UK17); experiment: MPC ion channel panel, Kv4.3; assay type: cell-based
Sequence of Kv4.3 (Q9UK17 whole entry): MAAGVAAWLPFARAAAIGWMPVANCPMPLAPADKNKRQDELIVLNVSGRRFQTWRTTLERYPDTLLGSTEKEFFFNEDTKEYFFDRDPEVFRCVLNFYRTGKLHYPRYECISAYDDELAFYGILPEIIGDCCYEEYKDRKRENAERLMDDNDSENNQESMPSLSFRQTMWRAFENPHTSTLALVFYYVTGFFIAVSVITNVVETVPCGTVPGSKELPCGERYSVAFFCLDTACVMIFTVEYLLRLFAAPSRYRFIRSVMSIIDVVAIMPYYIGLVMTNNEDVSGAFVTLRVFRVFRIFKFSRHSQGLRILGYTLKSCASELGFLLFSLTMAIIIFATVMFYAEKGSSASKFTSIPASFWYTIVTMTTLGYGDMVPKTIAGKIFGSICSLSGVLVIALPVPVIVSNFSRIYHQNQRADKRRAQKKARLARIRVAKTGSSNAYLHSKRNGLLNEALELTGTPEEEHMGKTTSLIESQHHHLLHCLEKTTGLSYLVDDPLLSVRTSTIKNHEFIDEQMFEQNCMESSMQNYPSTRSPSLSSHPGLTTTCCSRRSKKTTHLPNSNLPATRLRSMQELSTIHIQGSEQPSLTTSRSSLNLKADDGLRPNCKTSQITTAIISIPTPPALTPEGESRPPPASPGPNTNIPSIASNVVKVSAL

[7] = biological target: KCNQ1/E1 (Homo sapiens, UniProt P51787); experiment: MPC ion channel panel, KCNQ1/E1; assay type: cell-based
[8] = biological target: Nav1.5 (Homo sapiens, UniProt Q14524); experiment: MPC ion channel panel, Nav1.5; assay type: cell-based
Sequence of Nav1.5 (Q14524 whole entry): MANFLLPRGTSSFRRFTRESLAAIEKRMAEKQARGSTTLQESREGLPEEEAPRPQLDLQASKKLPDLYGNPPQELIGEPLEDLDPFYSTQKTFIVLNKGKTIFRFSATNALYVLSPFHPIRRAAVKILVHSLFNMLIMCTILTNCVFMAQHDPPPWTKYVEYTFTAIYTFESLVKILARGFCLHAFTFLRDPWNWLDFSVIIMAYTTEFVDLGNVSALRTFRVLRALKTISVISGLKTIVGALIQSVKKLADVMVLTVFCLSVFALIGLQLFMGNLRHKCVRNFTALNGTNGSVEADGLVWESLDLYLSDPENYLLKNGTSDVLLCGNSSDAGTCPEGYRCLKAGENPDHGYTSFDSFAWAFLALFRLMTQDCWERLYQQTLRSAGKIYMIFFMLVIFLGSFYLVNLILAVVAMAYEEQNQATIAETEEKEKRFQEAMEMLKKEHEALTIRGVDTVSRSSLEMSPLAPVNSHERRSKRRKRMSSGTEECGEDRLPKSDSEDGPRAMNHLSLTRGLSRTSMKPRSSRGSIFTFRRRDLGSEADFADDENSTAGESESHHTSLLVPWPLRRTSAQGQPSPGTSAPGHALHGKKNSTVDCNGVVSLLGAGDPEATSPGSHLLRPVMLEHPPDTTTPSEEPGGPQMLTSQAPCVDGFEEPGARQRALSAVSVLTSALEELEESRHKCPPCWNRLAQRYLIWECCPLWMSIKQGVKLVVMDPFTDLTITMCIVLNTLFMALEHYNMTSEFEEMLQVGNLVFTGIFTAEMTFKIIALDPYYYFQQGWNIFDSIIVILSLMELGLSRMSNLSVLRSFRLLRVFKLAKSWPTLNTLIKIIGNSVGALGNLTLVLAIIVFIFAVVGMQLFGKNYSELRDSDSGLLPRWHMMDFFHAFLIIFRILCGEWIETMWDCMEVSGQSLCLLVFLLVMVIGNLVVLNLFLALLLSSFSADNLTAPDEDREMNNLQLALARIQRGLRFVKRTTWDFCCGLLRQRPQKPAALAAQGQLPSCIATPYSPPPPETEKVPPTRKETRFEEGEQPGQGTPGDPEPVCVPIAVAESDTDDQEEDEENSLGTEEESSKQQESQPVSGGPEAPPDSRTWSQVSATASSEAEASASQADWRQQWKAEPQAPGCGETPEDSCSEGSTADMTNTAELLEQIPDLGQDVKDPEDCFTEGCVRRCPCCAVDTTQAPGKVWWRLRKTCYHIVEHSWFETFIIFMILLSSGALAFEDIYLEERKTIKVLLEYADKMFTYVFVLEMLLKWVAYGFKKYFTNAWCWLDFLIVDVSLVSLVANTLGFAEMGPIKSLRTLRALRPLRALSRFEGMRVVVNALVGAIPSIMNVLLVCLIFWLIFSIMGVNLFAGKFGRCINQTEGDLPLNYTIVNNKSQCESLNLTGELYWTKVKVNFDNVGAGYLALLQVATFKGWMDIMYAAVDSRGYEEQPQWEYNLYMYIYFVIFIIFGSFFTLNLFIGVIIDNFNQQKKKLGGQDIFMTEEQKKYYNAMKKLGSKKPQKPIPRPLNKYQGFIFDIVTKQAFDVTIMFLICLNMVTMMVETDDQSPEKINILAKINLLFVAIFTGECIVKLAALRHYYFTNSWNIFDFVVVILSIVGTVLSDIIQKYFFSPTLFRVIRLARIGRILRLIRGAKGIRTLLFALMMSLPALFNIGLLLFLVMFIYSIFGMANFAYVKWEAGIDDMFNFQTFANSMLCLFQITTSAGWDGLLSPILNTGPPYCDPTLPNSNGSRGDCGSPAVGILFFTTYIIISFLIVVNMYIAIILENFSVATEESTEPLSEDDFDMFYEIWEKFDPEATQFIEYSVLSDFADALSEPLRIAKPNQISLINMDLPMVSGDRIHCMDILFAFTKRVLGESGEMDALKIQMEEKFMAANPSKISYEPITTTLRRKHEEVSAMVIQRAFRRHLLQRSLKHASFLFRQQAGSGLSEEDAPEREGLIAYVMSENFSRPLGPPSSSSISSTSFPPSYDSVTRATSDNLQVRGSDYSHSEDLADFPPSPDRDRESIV

[9] = biological target: Kir2.2 (Homo sapiens, UniProt Q14500); experiment: MPC ion channel panel, Kir2.2; assay type: cell-based
Sequence of Kir2.2 (Q14500 whole entry): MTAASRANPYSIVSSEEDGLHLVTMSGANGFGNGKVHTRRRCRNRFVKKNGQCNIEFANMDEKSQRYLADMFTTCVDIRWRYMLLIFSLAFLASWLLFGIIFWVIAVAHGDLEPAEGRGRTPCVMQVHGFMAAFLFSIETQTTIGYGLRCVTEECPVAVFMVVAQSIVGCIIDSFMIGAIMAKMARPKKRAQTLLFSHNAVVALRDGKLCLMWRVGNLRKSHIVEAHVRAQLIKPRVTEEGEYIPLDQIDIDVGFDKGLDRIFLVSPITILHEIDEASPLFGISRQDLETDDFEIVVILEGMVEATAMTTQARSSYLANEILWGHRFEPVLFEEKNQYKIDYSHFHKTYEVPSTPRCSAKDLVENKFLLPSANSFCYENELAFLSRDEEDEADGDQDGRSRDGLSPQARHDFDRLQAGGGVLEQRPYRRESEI

[10] = Embryo fetal developmental toxicity in vivo
[11] = Rat 4-day dosing general toxicity study; details: at NOAEL doses, rat 4-day study

CC(=O)N1CCC(n2ncc(Cl)c2C(=O)Nc2ncc(C#Cc3ccccc3)cc2C)CC1 [Compound 10, 1-(1-Acetylpiperidin-4-yl)-4-chloro-N-(3-methyl-5-(phenylethynyl)pyridin-2-yl)-1H-pyrazole-5-carboxamide]
fraction unbound at 6 h, 5 µM [1]: 0.01
efflux ratio [2]: 0.7
clearance [3]: 30 mL/min/kg
Vd [3]: 2.2 L/kg
half-life [3]: 1 h
Cmax [3]: 80 ng/mL
F (%) po [3]: 40%
IC50 [4]: 380 nM
inhibition at 10 µM [4]: 98%
inhibition at 10 µM [5]: ≤ 50%
inhibition at 10 µM [6]: ≤ 50%
inhibition at 10 µM [7]: ≤ 50%
inhibition at 10 µM [8]: ≤ 50%
inhibition at 10 µM [9]: 51%
embryo fetal developmental toxicity [10]: positive
embryo fetal developmental toxicity ([10]; listed as ONO-9517601): positive signal
safety margin based on the AUC [11]: more than 10 fold

CC(=O)N1CC[C@@H](n2ncc(Cl)c2C(=O)Nc2ncc(C#Cc3ccc(F)cc3)cc2C)[C@H](F)C1 [Compound 11, 1-((3R,4R)-1-Acetyl-3-fluoropiperidin-4-yl)-4-chloro-N-(5-((4-fluorophenyl)ethynyl)-3-methylpyridin-2-yl)-1H-pyrazole-5-carboxamide]
fraction unbound at 6 h, 5 µM [1]: 0.048
efflux ratio [2]: 0.91
clearance [3]: 6.1 mL/min/kg
Vd [3]: 2.7 L/kg
half-life [3]: 5.5 h
Cmax [3]: 162 ng/mL
F (%) po [3]: 57%
IC50 [4]: 770 nM
inhibition at 10 µM [4]: 91%
inhibition at 10 µM [5]: ≤ 50%
inhibition at 10 µM [6]: ≤ 50%
inhibition at 10 µM [7]: 60%
inhibition at 10 µM [8]: ≤ 50%
inhibition at 10 µM [9]: ≤ 50%
embryo fetal developmental toxicity [10]: positive
embryo fetal developmental toxicity ([10]; listed as ONO-7927846): positive signal
safety margin based on the AUC [11]: more than 10 fold
